In ChEMBL document CHEMBL3301562, “MMV Box screening against Plasmodium falciparum protein kinases and aminoacyl tRNA synthetases”:

Experiments:
Type in all cases: functional
[1] = target: T1, Calcium-dependent protein kinase 4 (Plasmodium falciparum (isolate 3D7), UniProt Q8IBS5); assay: MMV: CDPK4 Protein kinase inhibition assay using recombinant PfCDPK4, syntide2 peptide substrate, ATP and KinaseGlo to measure % inhibition at 1 uM MMV box compound.
T1 sequence (Q8IBS5 whole entry): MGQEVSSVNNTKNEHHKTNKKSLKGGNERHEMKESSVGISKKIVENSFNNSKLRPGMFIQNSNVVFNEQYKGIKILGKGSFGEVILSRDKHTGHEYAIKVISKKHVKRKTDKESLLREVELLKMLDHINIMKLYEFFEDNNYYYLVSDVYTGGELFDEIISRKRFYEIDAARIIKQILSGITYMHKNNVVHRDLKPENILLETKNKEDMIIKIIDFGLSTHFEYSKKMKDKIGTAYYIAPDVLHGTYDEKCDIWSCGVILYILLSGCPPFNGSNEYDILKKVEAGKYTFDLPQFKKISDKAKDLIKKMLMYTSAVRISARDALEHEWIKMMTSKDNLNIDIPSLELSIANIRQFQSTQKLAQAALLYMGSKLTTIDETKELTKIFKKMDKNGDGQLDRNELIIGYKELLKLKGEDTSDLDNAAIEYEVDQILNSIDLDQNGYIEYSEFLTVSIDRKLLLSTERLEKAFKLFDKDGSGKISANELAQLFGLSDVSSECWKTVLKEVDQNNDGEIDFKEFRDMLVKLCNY

[2] = target: T2, Proline--tRNA ligase (Plasmodium falciparum (isolate 3D7), UniProt Q8I5R7); assay: MMV: ProRS recombinant Plasmodium falciparum Prolyl-tRNA-synthetase, assay with yeast tRNA, ATP, and proline and 3 uM MMV malaria box compound, assay read out with kinase glo as % inhibition.
T2 sequence (Q8I5R7 whole entry): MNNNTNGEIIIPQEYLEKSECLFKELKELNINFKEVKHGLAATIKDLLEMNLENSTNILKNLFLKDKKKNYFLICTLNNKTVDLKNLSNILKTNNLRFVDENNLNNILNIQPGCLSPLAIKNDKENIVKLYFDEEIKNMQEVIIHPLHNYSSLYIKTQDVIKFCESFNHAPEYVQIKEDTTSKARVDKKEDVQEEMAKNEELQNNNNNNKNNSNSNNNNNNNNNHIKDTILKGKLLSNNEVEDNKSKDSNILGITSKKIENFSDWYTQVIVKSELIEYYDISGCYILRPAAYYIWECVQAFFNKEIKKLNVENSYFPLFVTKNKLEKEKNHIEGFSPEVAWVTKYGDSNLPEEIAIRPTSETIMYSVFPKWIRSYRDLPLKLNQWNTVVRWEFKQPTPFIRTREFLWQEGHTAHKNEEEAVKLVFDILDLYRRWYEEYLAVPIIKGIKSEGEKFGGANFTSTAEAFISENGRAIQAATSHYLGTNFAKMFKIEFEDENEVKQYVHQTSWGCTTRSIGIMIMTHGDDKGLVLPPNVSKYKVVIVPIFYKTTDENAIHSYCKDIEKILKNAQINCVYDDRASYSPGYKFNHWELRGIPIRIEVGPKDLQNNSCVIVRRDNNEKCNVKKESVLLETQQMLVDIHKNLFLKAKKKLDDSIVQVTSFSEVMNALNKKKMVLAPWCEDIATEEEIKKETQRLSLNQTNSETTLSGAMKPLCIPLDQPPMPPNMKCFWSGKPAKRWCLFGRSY

[3] = target: T3, Mitogen-activated protein kinase (Plasmodium falciparum, UniProt Q25917); assay: Final concentrations were 1 uM ATP, 0.5 mM DTT, 1 mM MgCl2, 0.5 mg/mL BSA, and 10 ug/ml MAP2 in a buffer of 50 mM HEPES (pH 7.0). 0.5 mg/mL histone III-S served as the substrate (13); 100 uM AMP-PNP, an ATP analog, was used as a control inhibitor. Incubation time was 4 hours.
T3 sequence (Q25917 whole entry): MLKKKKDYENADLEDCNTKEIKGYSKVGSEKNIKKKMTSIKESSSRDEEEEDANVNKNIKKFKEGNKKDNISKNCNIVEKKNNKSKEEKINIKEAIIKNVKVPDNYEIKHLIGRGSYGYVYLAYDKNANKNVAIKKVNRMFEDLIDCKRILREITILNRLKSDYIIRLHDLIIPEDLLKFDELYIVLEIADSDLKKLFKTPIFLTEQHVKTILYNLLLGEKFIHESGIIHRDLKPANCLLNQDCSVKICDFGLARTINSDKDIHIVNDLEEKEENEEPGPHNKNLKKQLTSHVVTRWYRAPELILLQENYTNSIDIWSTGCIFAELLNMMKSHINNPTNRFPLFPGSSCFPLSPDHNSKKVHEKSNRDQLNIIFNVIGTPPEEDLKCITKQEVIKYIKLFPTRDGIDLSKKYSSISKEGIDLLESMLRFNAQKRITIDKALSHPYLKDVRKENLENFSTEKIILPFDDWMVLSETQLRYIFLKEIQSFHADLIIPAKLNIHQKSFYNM

[4] = target: Lysine--tRNA ligase (Plasmodium falciparum (isolate 3D7), UniProt Q8IDJ8); assay: MMV: KRS recombinant Plasmodium falciparum Lysyl-tRNA-synthetase, assay with yeast tRNA, ATP, and lysine and 3 uM MMV malaria box compound, assay read out with kinase glo as % inhibition.
[5] = target: T4, Cdk-related protein kinase 6 (Plasmodium falciparum, UniProt O77239); assay: Final concentrations were 1.5 uM ATP, 5 mM MnCl2, and 15 ug/ml PK6 in a buffer of 100 mM Tris-HCl (pH 7.5). 50 ug/mL MBP was provided as the substrate; 10 uM staurosporine was used as a control inhibitor. Incubation time was 3 hours and 40 minutes.The catalytic activity of each kinase was considered proportional to ATP consumed, as determined from measurements of residual [ATP] with the luciferase-based reagent Kinase-Glo (Promega) following incubation. Luminescence (proportional to residual [ATP]) was measured on the plate readers FLx800 (BioTek Instruments, Winooski, VT, USA) and MicroBeta2.
T4 sequence (O77239 whole entry): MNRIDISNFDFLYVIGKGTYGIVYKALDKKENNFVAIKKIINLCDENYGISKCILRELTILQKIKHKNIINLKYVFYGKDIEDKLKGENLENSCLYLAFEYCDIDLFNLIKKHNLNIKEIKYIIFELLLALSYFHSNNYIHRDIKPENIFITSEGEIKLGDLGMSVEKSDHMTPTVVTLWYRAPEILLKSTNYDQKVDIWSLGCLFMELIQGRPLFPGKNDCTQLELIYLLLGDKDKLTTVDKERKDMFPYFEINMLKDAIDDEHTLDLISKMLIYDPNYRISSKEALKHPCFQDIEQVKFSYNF

[6] = target: Calcium-dependent protein kinase 1 (Plasmodium falciparum, UniProt P62344); assay: MMV: CDPK1 Protein kinase inhibition assay using recombinant PfCDPK1, syntide 2 peptide substrate, ATP and KinaseGlo to measure % inhibition at 1 uM MMV box compound.
[7] = target: T5, Putative uncharacterized protein pk7 (Plasmodium falciparum, UniProt O96214); assay: Final concentrations were 1 uM ATP, 2 mM DTT, 20 mM MgCl2, 2 mM MnCl2, 0.01% BSA, and 6 ug/ml PK7, in a buffer of 20 mM Tris-HCl (pH 7.5). The enzyme itself was the only substrate present (since autophosphorylation occurs); 100 uM 1NA-PP1 was used as a control inhibitor. Incubation time was 3 hours.
T5 sequence (O96214 whole entry): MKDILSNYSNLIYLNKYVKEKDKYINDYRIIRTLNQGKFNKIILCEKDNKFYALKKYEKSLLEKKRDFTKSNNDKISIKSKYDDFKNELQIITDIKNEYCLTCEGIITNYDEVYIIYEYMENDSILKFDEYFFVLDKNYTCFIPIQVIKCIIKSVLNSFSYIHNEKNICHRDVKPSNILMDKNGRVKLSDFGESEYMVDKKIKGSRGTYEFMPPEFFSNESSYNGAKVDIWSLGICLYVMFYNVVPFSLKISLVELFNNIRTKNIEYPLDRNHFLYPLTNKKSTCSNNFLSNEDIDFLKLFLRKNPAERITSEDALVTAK

Sequence of Lysine--tRNA ligase (Q8IDJ8 whole entry): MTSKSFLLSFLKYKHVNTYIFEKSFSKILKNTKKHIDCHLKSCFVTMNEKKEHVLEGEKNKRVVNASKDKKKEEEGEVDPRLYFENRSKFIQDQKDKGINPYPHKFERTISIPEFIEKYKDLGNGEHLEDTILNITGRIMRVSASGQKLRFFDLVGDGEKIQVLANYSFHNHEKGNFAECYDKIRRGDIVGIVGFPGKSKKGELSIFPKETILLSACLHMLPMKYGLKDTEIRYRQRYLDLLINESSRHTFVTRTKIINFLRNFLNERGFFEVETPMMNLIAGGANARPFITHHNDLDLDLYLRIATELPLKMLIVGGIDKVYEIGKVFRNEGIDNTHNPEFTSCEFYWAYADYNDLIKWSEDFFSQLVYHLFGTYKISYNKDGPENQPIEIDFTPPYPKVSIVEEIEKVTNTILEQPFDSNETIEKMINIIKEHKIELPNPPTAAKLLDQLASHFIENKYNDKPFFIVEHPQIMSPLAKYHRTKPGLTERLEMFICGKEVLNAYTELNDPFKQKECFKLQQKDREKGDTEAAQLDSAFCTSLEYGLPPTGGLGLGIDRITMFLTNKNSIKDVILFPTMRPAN
Sequence of Calcium-dependent protein kinase 1 (P62344 whole entry): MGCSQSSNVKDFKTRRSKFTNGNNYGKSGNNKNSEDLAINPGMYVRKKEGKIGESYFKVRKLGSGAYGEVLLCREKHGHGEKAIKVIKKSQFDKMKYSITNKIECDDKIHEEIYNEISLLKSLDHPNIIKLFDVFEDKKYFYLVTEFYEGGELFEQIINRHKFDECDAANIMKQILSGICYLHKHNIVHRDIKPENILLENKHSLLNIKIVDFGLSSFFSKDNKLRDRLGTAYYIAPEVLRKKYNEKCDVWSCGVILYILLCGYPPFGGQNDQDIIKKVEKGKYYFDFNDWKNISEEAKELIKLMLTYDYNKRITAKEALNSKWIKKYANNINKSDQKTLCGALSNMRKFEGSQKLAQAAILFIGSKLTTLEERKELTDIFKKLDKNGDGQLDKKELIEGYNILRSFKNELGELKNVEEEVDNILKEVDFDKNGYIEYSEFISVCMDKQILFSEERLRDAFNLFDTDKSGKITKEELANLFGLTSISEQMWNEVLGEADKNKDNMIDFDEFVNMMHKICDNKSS

Structure (SMILES)	IC50 [1]	IC50 [2]	IC50 [3]	IC50 [4]	IC50 [5]	IC50 [6]	IC50 [7]
Cc1cc(NC(=O)c2cccc(C(F)(F)F)c2)n(-c2nc(-c3ccc4c(c3)OCO4)cs2)n1	> 1000 nM	> 2500 nM	> 1000 nM	> 2500 nM	> 1000 nM	> 1000 nM	> 1000 nM
Cc1cccc(-n2ncc3c(O)nc(-n4nc(C)cc4NC(=O)c4cc5ccccc5o4)nc32)c1	> 1000 nM	> 2500 nM	> 1000 nM	> 2500 nM	> 1000 nM	> 1000 nM	> 1000 nM
COCCNCC(O)Cn1c2ccc(Cl)cc2c2cc(Cl)ccc21 (stereo not given)	> 1000 nM	> 2500 nM	> 1000 nM	> 2500 nM	> 1000 nM	> 1000 nM	> 1000 nM
COc1cc2cc(C(=O)Nc3ccccc3)c(N)nc2cc1OC	> 1000 nM	> 2500 nM	> 1000 nM	> 2500 nM	> 1000 nM	> 1000 nM	> 1000 nM
Oc1ccccc1CN1CCN(C(c2ccccc2)c2ccccc2)CC1	> 1000 nM	> 2500 nM	> 1000 nM	> 2500 nM	> 1000 nM	> 1000 nM	> 1000 nM
CN1CCN(c2c3c(c(C#N)c4nc5ccccc5n24)CCC3)CC1	> 1000 nM	> 2500 nM	> 1000 nM	> 2500 nM	> 1000 nM	> 1000 nM	> 1000 nM
COc1nc(Nc2ccc(C(C)C)cc2)nc(OC)n1	> 1000 nM	> 2500 nM	> 1000 nM	> 2500 nM	> 1000 nM	> 1000 nM	> 1000 nM
CCN(CC)CCNc1ncnc2c1[nH]c1ccc(Br)cc12	> 1000 nM	> 2500 nM	> 1000 nM	> 2500 nM	> 1000 nM	> 1000 nM	> 1000 nM
CCOc1cccc(C(=O)Nc2ccc(-c3nc4ccccc4[nH]3)cc2)c1	> 1000 nM	> 2500 nM	> 1000 nM	> 2500 nM	> 1000 nM	> 1000 nM	> 1000 nM
O=C(Nc1ccc(N2CCN(Cc3ccccc3)CC2)cc1)c1cccs1	> 1000 nM	> 2500 nM	> 1000 nM	> 2500 nM	> 1000 nM	> 1000 nM	> 1000 nM
O=C(Nc1ccc(N2CCCCC2)c(Cl)c1)c1ccc(Br)o1	> 1000 nM	> 2500 nM	> 1000 nM	> 2500 nM	> 1000 nM	> 1000 nM	> 1000 nM
CC1CC(C)CN(C(=O)c2ccc(Cl)cc2Cl)C1 (stereo not given)	> 1000 nM	> 2500 nM	> 1000 nM	> 2500 nM	> 1000 nM	> 1000 nM	> 1000 nM
OC(CNC1CCCC1)Cn1c2ccccc2c2ccccc21 (stereo not given)	> 1000 nM	> 2500 nM	> 1000 nM	> 2500 nM	> 1000 nM	> 1000 nM	> 1000 nM
Clc1ccc2[nH]c3c(NCCCN4CCOCC4)ncnc3c2c1	> 1000 nM	> 2500 nM	> 1000 nM	> 2500 nM	> 1000 nM	> 1000 nM	> 1000 nM
C=CCc1c(C)nc2ccccc2c1O	> 1000 nM	> 2500 nM	> 1000 nM	> 2500 nM	> 1000 nM	> 1000 nM	> 1000 nM
